From paper PMC3532034 (The Journal of neuroscience : the official journal of the …, 2012) come the findings set out here.

This assay has as its target LRRK2 (leucine-rich repeat kinase 2) (Homo sapiens, UniProt Q5S007). The assay can be described thus: in vitro radiometric kinase assay with recombinant purified LRRK2. The assay is classed as biochemical.

Each structure is given as a SMILES string.

Chain of LRRK2 (leucine-rich repeat kinase 2) (Q5S007 970-2527 limits assumed): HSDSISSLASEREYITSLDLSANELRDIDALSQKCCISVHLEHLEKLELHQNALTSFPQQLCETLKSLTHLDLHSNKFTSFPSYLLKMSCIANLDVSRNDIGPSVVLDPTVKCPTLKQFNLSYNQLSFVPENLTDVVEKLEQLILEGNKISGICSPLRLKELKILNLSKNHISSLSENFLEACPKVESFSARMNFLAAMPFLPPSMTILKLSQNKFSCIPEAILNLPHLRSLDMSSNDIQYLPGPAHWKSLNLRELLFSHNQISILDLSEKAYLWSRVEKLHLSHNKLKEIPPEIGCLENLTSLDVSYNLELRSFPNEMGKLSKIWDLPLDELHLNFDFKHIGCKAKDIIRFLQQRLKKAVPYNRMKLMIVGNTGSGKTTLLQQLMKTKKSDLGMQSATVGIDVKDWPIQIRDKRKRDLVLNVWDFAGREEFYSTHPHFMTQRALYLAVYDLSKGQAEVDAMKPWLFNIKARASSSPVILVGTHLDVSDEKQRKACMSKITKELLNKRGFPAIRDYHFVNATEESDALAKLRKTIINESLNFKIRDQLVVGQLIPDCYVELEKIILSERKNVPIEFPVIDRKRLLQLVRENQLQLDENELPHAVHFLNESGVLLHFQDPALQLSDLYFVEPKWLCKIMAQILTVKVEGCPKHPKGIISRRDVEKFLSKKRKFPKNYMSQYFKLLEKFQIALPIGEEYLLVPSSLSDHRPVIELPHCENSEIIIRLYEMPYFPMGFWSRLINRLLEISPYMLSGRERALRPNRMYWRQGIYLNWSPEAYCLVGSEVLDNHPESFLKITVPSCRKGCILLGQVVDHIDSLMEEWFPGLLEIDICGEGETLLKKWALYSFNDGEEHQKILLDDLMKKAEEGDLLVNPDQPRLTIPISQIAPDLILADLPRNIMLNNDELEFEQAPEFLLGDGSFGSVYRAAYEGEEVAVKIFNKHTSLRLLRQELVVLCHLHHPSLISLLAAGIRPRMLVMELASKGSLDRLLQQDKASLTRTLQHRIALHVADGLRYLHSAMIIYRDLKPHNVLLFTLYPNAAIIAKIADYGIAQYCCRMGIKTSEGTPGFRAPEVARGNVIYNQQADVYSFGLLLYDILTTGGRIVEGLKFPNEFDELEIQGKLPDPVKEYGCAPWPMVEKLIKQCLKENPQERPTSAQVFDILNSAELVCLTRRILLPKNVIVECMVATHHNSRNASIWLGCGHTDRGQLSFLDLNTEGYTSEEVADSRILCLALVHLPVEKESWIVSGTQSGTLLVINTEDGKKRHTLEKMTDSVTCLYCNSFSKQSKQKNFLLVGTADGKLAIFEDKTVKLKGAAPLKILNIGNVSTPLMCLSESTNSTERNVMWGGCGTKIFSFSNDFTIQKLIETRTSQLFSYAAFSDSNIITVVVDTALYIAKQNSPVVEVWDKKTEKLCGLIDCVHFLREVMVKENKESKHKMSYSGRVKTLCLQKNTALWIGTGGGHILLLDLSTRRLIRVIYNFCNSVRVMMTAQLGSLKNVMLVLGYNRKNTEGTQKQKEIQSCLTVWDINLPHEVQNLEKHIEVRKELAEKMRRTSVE

On to `COc1cc(C(=O)N2CCC(N3CCN(C)CC3)CC2)ccc1Nc1ncc2c(n1)N(C)c1ccccc1C(=O)N2C` [L2in1], for which the concentration for half-maximal inhibition (IC50) (in general, the concentration that inhibits the measured activity by half) came to 40.3 nM.
